Experimental data reported in paper PMC5147970 (Biochemistry, 2015).
Values joined by “and” are separate entries in the source; they are usually repeats but may differ in a detail not shown here. Identical values can stand only once. Values belong to the compound of their own block, whether it stands above or below them.

What was measured:
[1] = biological target: chymotrypsin-truncated R67 dihydrofolate reductase cross-linked to folate with EDC; assay: AUC
[2] = biological target: T1, R67 dihydrofolate reductase (R67 DHFR) (Escherichia coli, UniProt P00383); assay: steady-state DHFR inhibition, Lineweaver–Burk slope replot; format: biochemical
T1 sequence (P00383 1-78): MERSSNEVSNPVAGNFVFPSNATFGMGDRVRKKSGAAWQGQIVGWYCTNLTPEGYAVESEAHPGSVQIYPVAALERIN

[3] = biological target: chymotrypsin-truncated R67 dihydrofolate reductase; assay: AUC
[4] = biological target: T1, R67 dihydrofolate reductase (R67 DHFR); assay: steady-state DHFR inhibition vs DHF; format: biochemical
[5] = biological target: T2, R67 dihydrofolate reductase (K33M) (Escherichia coli, UniProt P00383, K33M); assay: folate reduction kinetics; format: biochemical
T2 sequence (P00383 4-78 K33M): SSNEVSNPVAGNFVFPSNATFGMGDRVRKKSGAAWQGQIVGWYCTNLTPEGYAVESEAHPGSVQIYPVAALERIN

stoichiometry N [1]: 4
Compound: chymotrypsin-truncated R67 dihydrofolate reductase cross-linked to folate with EDC (enzyme)

Compound: NCCNC(=O)CC[C@H](NC(=O)c1ccc(NCc2cnc3nc(N)[nH]c(=O)c3n2)cc1)C(=O)NCCN [bis-EDA–folate]
Ki [2]: 140 ± 15 µM

stoichiometry N [3]: 4 and 2
Compound: chymotrypsin-truncated R67 dihydrofolate reductase (enzyme)

Compound: Nc1nc(=O)c2nc(CNc3ccc(C(=O)N[C@@H](CCC(=O)O)C(=O)O)cc3)cnc2[nH]1 [folate]
Ki [4]: 16 ± 3 µM | folate reduction kinetics (kcat) and EDC cross-linking inactivation [5]: 0.065 ± 0.017 min^–1
